Entries after “also recorded” stand apart in the source; their conditions may differ.
System: Turnip Crinkle Virus (TCV)
Assay: Resistance of Arabidopsis to Turnip Crinkle Virus (coat protein immunoblot, symptoms)
Assay type: in vivo
Settings: root pretreatment 1 μM

Compound: CC1O[C@@H](O[C@@H](C)CCCCCCCCC(=O)O)C(O)C[C@H]1O (stereo in doubt) [ascr #18, (10R)-(3′R,5′R-dihydroxy-6′S-methyl-(2H)-tetrahydropyran-2-yloxy)-undecanoic Acid]
- resistance to virulent TCV: dramatically enhanced resistance; also recorded: enhanced basal resistance
- disease symptoms (chlorosis, lesions, suppression of inflorescent development) (6 dpi): greatly reduced
- systemic spread of the virus (distal leaves): largely abolished
- viral replication (amount of viral coat protein) (inoculated and distal leaves, immune blot): greatly reduced
